Patent US12492210B2, “Tricyclic compounds and their use” (HUTCHISON MEDIPHARMA LIMITED, priority 2019, dated 2025)

Experiments:
[1] = tested on: p-RSK (Thr359) in colo205 cells; experiment: p-RSK (Thr359) Acumen Assay in Colo205; format: cell-based; conditions: Homo sapiens, COLO 205, 1 hour compound incubation, read-out: Example 19 IC50
How it was run: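 Colo205 cells (4000/well, seeded overnight in 10% FBS) were exposed 1 hour at 37° C to compound added from a 3–0.001 μM dilution series in 5% DMSO. Cells were then fixed, permeabilised and immunostained for p-RSK Thr359, with PI counterstain. Acumen cytometry gave the percentage of positive cells, normalised to untreated wells and 3 uM GDC0994 wells, for the IC50 fit.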

MAPK1(ERK2) enzyme = target: T1, MAPK1(ERK2) enzyme (Homo sapiens, UniProt P28482); experiment: Z-Lyte Kinase Assay of ERK2; format: biochemical; conditions: read-out: Example 18 IC50
T1 construct: purchased Invitrogen PV3313
How it was run: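 FRET-based Z-LYTE assay using ERK2 kinase with Ser/Thr3 peptide; compound tested at 0.00046–1 μM final in 2% DMSO. Kinase reaction ran 1 h at 25-30° C, followed by 1 h development. The coumarin/fluorescein emission ratio (445/520 nm) gave % phosphorylation, and IC50 was fitted from inhibition relative to uninhibited control.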

T1 sequence (P28482 whole entry): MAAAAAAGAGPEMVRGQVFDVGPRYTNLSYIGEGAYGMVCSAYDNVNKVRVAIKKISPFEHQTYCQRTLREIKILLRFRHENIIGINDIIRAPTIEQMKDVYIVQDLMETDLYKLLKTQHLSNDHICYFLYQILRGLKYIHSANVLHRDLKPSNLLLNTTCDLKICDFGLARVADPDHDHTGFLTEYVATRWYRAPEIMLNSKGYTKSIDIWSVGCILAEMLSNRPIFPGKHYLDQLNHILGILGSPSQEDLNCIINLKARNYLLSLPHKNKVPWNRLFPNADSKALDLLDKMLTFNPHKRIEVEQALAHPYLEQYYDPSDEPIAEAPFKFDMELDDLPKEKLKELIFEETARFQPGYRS

SMILES	IC50 [1] [nM]	IC50 (MAPK1(ERK2) enzyme) [nM]
Cc1cnc(Nc2ccnn2C)cc1-c1cc2n(c1)C[C@H](CF)n1c-2nnc1C(F)(F)c1ncccc1F [Compound 133]	≤ 100	≤ 5
Cn1nccc1Nc1cc(-c2cc3n(c2)C[C@H](CF)n2c(Cc4c(F)cccc4F)nnc2-3)c(Cl)cn1 [Compound 139]	≤ 100	≤ 5
Cn1nccc1Nc1cc(-c2cc3n(c2)CC2(CC2)Cn2c-3nnc2C2(C(F)F)CCC2)c(Cl)cn1 [Compound 51]	≤ 100	≤ 5
CO[C@H]1Cn2cc(-c3cc(Nc4ccnn4C)ncc3Cl)cc2-c2nnc(C3(C(C)(F)F)CCC3)n2C1 [Compound 155]	≤ 100	5 to 10
Cn1nccc1Nc1nccc(-c2cc3n(c2)C[C@H](C(F)(F)F)n2c-3nnc2C(F)(F)c2ccccc2F)n1 [Compound 273]	> 100	5 to 10
Cn1nccc1Nc1cc(-c2cc3n(c2)CCCn2c-3nnc2C2(C(F)(F)F)CCCC2)c(Cl)cn1 [Compound 31]	≤ 100	5 to 10
Cn1nccc1Nc1cc(-c2cc3n(c2)C[C@H](CF)n2c-3nnc2C(F)(F)c2ccccc2F)ccn1 [Compound 96]	≤ 100	5 to 10
Cn1nccc1Nc1cc(-c2cc3n(c2)CC(F)(F)Cn2c-3nnc2C(F)(F)C(F)F)c(Cl)cn1 [Compound 113]	> 100	5 to 10
Cn1nccc1Nc1nccc(-c2cn3c(c2F)-c2nnc(COc4ccccc4F)n2CCC3)n1 [Compound 246]	≤ 100	≤ 5
Cc1cnc(Nc2ccnn2C)cc1-c1cc2n(c1)C[C@H](C(F)F)n1c-2nnc1C(F)(F)c1ccccc1F [Compound 179]	≤ 100	> 10
Cn1nccc1Nc1nccc(-c2cc3n(c2)C[C@H](C(F)F)n2c-3nnc2C(F)(F)c2ccccc2F)n1 [Compound 149]	≤ 100	≤ 5
COc1cc(Nc2cc(-c3cc4n(c3)CCCn3c-4nnc3C3(C(F)(F)F)CCC3)c(Cl)cn2)n(C)n1 [Compound 269]	> 100	5 to 10
Cn1nccc1Nc1cc(-c2cc3n(c2)C[C@H](CF)n2c-3nnc2C(F)(F)c2ccccc2Cl)c(F)cn1 [Compound 192]	≤ 100	> 10
CC1CCn2c(nnc2C2(C(F)(F)F)CCC2)-c2cc(-c3cc(Nc4ccnn4C)ncc3Cl)cn21 (stereo not shown) [Compound 52]	≤ 100	≤ 5
Cn1nccc1Nc1ncc(F)c(-c2cc3n(c2)C[C@H](CF)n2c-3nnc2C(F)(F)c2ccccc2F)n1 [Compound 148]	≤ 100	5 to 10
C[C@H]1Cn2cc(-c3cc(Nc4ccnn4C)ncc3Cl)cc2-c2nnc(C(F)(F)c3ccccc3Cl)n21 [Compound 178]	≤ 100	> 10
Cn1nccc1Nc1nccc(-c2cn3c(c2Cl)-c2nnc(COc4ccccc4F)n2CCC3)n1 [Compound 257]	≤ 100	5 to 10
FC[C@H]1Cn2cc(-c3cc(NN4CCOCC4)ncc3Cl)cc2-c2nnc(C(F)(F)c3ccccc3F)n21 [Compound 274]	≤ 100	> 10
Cc1cnc(Nc2ccnn2C)nc1-c1cc2n(c1)C[C@H](CF)n1c-2nnc1C(F)(F)n1cc(Cl)cn1 [Compound 156]	≤ 100	≤ 5
C[C@H]1Cn2cc(-c3nc(Nc4ccnn4C)ncc3F)cc2-c2nnc(C(F)(F)c3ccccc3Cl)n21 [Compound 143]	≤ 100	> 10
Cn1nccc1Nc1ncc(F)c(-c2cc3n(c2)C[C@H](CF)n2c-3nnc2C(F)(F)c2ccccc2)n1 [Compound 98]	≤ 100	≤ 5
Cc1cnc(Nc2ccnn2C)cc1-c1cc2n(c1)C[C@H](CF)n1c-2nnc1C(F)(F)c1cccc(F)c1 [Compound 127]	≤ 100	5 to 10
CCC(F)(F)c1nnc2n1[C@@H](CF)Cn1cc(-c3cc(Nc4ccnn4C)ncc3C)cc1-2 [Compound 57]	> 100	≤ 5
Cn1nccc1Nc1cc(-c2cc3n(c2)C[C@H](C(F)F)n2c-3nnc2C(F)(F)n2cc(Cl)cn2)c(Cl)cn1 [Compound 209]	≤ 100	5 to 10
Cc1cnc(Nc2ccnn2C)cc1-c1cc2n(c1)C[C@H](CF)n1c-2nnc1C(F)(F)c1c(F)cccc1F [Compound 185]	≤ 100	> 10
Cc1cnc(NC2CCc3ncnn3C2)nc1-c1cc2n(c1)C[C@H](C)n1c-2nnc1C(F)(F)c1ccccc1F (stereo partly shown) [Compound 280]	> 100	5 to 10
Cn1nccc1Nc1cc(-c2cc3n(c2)CC2(CC2)Cn2c(CCC(F)(F)F)nnc2-3)c(Cl)cn1 [Compound 254]	≤ 100	≤ 5

SMILES	IC50 [1] [nM]	IC50 (MAPK1(ERK2) enzyme) [nM]
Cn1nccc1Nc1nccc(-c2cc3c4nnc(Nc5ccccc5F)n4ccn3c2)n1 [Compound 41, N-(2-fluorophenyl)-9-(2-((1-methyl-1H-pyrazol-5-yl)amino)pyrimidin-4-yl)pyrrolo[1,2-a][1,2,4]triazolo[3,4-c]pyrazin-3-amine]	> 100	≤ 5
Cn1nccc1Nc1cc(-c2cc3n(c2)CC(F)(F)Cn2c(Cn4cc(F)cn4)nnc2-3)c(Cl)cn1 [Compound 106]	≤ 100	≤ 5
Cn1nccc1Nc1ncc(Cl)c(-c2cc3n(c2)CCCn2c(COc4ccccc4F)nnc2-3)n1 [Compound 211, 5-chloro-4-(3-((2-fluorophenoxy)methyl)-6,7-dihydro-5H-pyrrolo[1,2-a][1,2,4]triazolo[3,4-c][1,4]diazepin-10-yl)-N-(1-methyl-1H-pyrazol-5-yl)pyrimidin-2-amine]	≤ 100	5 to 10
Cc1cnc(Nc2ccnn2C)cc1-c1cc2n(c1)CCCn1c-2nnc1C1(C(F)(F)F)CC1 [Compound 233]	≤ 100	≤ 5
Cn1nccc1Nc1cc(-c2cc3n(c2)CC(C)(C)n2c(CCC(F)(F)F)nnc2-3)c(Cl)cn1 [Compound 247]	≤ 100	≤ 5
Cn1nccc1Nc1cc(-c2cc3n(c2)CC(F)(F)Cn2c-3nnc2C(C)(C)C(F)(F)F)c(Cl)cn1 [Compound 146]	≤ 100	≤ 5
Cn1nccc1Nc1ncc(F)c(-c2cc3n(c2)C[C@H](CF)n2c-3nnc2C(F)(F)n2cc(Cl)cn2)n1 [Compound 166]	≤ 100	≤ 5
Cn1nccc1Nc1cc(-c2cc3n(c2)C[C@H](CF)n2c-3nnc2C(F)(F)n2cc(Cl)cn2)c(Cl)cn1 [Compound 200]	≤ 100	5 to 10
CC[C@H]1Cn2cc(-c3nc(Nc4ccnn4C)ncc3C)cc2-c2nnc(C(F)(F)c3ccccc3F)n21 [Compound 265]	> 100	> 10
Cc1cnc(Nc2ccnn2C)cc1-c1cc2n(c1)C[C@H](CF)n1c-2nnc1C(F)(F)c1cc(F)ccc1F [Compound 183]	≤ 100	≤ 5
C[C@@H](CO)Nc1ncc(Cl)c(-c2cc3n(c2)CCCn2c-3nnc2C2(C(F)(F)F)CCC2)n1 [Compound 276]	≤ 100	≤ 5
Cc1cnc(Nc2ccnn2C)cc1-c1cc2n(c1)CC1(CC1)Cn1c-2nnc1C(F)(F)C(F)F [Compound 66]	≤ 100	≤ 5
Cn1nccc1Nc1cc(-c2cc3n(c2)CCCn2c-3nnc2C2(C(F)(F)F)CCC2)c(C#N)cn1 [Compound 248]	> 100	5 to 10
Cc1cnc(Nc2ccnn2C)cc1-c1cc2n(c1)C[C@H](CF)n1c-2nnc1C(F)(F)c1nonc1C [Compound 101]	≤ 100	≤ 5
Cn1nccc1Nc1cc(-c2cc3n(c2)CCn2c(COc4ccccc4F)nnc2-3)c(Cl)cn1 [Compound 23]	≤ 100	5 to 10
Cn1nccc1Nc1nccc(-c2cn3c(c2Cl)-c2nnc(Cc4ccccc4F)n2CCC3)n1 [Compound 245]	≤ 100	≤ 5
Cc1c(-c2ccnc(Nc3ccnn3C)n2)cn2c1-c1nnc(C3(C(F)(F)F)CCC3)n1CCC2 [Compound 13]	> 100	≤ 5
Cn1nccc1Nc1cc(-c2cc3n(c2)CC2(CC2)Cn2c-3nnc2C2(C(F)(F)F)CCC2)c(Cl)cn1 [Compound 268]	≤ 100	≤ 5
Cn1nccc1Nc1ncc(F)c(-c2cc3n(c2)C[C@H](CF)n2c-3nnc2C(F)(F)c2ccccc2Cl)n1 [Compound 193]	≤ 100	5 to 10
Cn1nccc1Nc1cc(-c2cc3n(c2)CCCn2c(COc4ccccc4F)nnc2-3)c(F)cn1 [Compound 244]	≤ 100	5 to 10
Cn1nccc1Nc1cc(-c2cc3n(c2)CCC2(CC2)n2c(CCC(F)(F)F)nnc2-3)c(Cl)cn1 [Compound 255]	> 100	≤ 5
Cc1cnc(Nc2ccnn2C)cc1-c1cc2n(c1)C[C@H](CF)n1c-2nnc1C(F)(F)n1ccc(Cl)n1 [Compound 152]	≤ 100	≤ 5
Cn1nccc1Nc1cc(-c2cc3n(c2)C[C@H](CF)n2c-3nnc2C(F)(F)C(F)(F)F)c(Cl)cn1 [Compound 114]	> 100	≤ 5
Cc1cnc(Nc2ncnn2C)cc1-c1cc2n(c1)C[C@H](CF)n1c-2nnc1C(F)(F)c1ccccc1Cl [Compound 173]	> 100	5 to 10
Cn1nccc1Nc1nccc(-c2cc3n(c2)CCCn2c(COc4ccccc4)nnc2-3)n1 [Compound 36, N-(1-methyl-1H-pyrazol-5-yl)-4-(3-(phenoxymethyl)-6,7-dihydro-5H-pyrrolo[1,2-a][1,2,4]triazolo[3,4-c][1,4]diazepin-10-yl)pyrimidin-2-amine]	> 100	≤ 5
Cn1nccc1Nc1cc(-c2cc3n(c2)CC(C)(C)Cn2c-3nnc2C2(C(F)(F)F)CCC2)c(Cl)cn1 [Compound 159]	≤ 100	5 to 10
